In patent US10508124B2, “Xanthene protective agent” (priority 2016, dated 2019):
≈ marks a conversion by molar mass, not a printed value. Where a SMILES comes first, the peptide text is derived from it.

Assay: physchem
Assay type: physicochemical
Procedure: Peptide used as a model: H-Phe-Leu-NH2
H-Phe-Leu-NH2 and H-Phe-Leu-NH-(TIPS2-Xtn) were synthesized, and each compound was saturated in cyclopentyl methyl ether (CPME) at 25° C. to measure the solubility of each compound.
In regard to H-Phe-Leu-NH2 not bound to a TIPS type protective agent, 0.5 mM of the peptide dissolved in CPME. […] Herein, H-Phe-Leu-NH2 and H-Phe-Leu-NH-(TIPS2-Xtn) have the following structures.

Row | Compound | solubility | solubility in CPME relative to unprotected H-Phe-Leu-NH2
1 | CC(C)C[C@H](NC(=O)[C@@H](N)Cc1ccccc1)C(N)=O [H-Phe-Leu-NH2, reference compound] (H-Phe-Leu-NH2) | 0.5 mM (≈ 0.139 mg/mL) | –
2 | CC(C)C[C@H](NC(=O)[C@@H](N)Cc1ccccc1)C(=O)NC1c2ccc(OCCCCCCCCCCCO[Si](C(C)C)(C(C)C)C(C)C)cc2Oc2cc(OCCCCCCCCCCCO[Si](C(C)C)(C(C)C)C(C)C)ccc21 [H-Phe-Leu-NH-(TIPS2-Xtn)] | 586 mM (≈ 670 mg/mL) | ≥ 1100 times
